One assay has as its target T1, tubulin (Sus scrofa, UniProt P02550+P02554).
T1 construct: The procedure used is modified from Shelanski et al; from tissue
The experiment in a line: Tubulin assembly assay (tubulin binding). In kind it is biochemical, porcine. Particulars: under the assay conditions used.

In assay [1] the test system is rat aortic ring cultures. The experiment in a line: Aortic ring assay (anti-vascular model). In kind it is cell-based. The settings on record: 1 μM. As to the method:
The aortic ring assay is an ideal assay for testing the activity of anti-vascular, anti-angiogenic or pro-angiongenic agents. This method was originally developed and modified by Nicosia. The aorta can be excised from mice or rats, cut into ˜1 mm rings and cultured in either basement membrane matrix (matrigel) or collagen gel. Following incubation for several days the rings start to generate outgrowths of branching microvessels which are lined by endothelial cells and supported by pericytes and fibroblasts. The angiogenic response of the aorta is a self-limited process regulated by endogenous growth factors including bFGF [13], VEGF [14], PDGF [15] and angiopoietins.
The rat aorta model is an ex vivo assay which combines advantages of both in vitro and in vivo models. The process of angiogenesis takes place in a defined culture environment which can be easily adapted to different experimental conditions according to the requirement of the study. The cells of the aortic outgrowth have not been modified by repeated passages in culture and thus newly formed microvessels reproduce the characteristics of the vasculature formed during angiogenesis in vivo [17-18]. There is no influx of leukocytes from circulating blood therefore inflammatory complications which affect the interpretation of in vivo assays are minimised. For the purpose of this study, rat aortic ring cultures were used to investigate firstly the anti-vascular and then the anti-angiogenic activity of test compounds.
The successful growth of the aortic rings into a mircovessel network was dependent on several factors including (i) the amount of periaortic fibroadipose tissue left on the ring, (ii) the orientation of the ring, the way which the ring was embedded into the matrigel and (iii) the volume of the matrigel used.
The aortic ring assay is an ex vivo assay which allows the analyst to examine the inhibition/stimulation of angiogenesis as well as the breakdown of existing vasculature. Basement membrane matrix (matrigel) was stored at −20° C. Prior to use, matrigel vial was placed on ice and kept at 4° C. overnight in order to thaw. The matrigel was kept on ice at all times for the duration of the experiment. Aortic rings were obtained by excising the thoracic aorta of 5-10 weeks old Wistar male rats and removing the fibroadipose tissue from the aortic wall. The rings were obtained by cross-sectioning the aorta at ˜1 mm intervals, removed any blood clots by washing several times with EBM-2. Matrigel (80 μl) was placed uniformly in each well of a 12-well plate and the aortic rings were then placed individually in between the matrigel layer with the lumen perpendicular to the surface of the plate. The matrigel solution was allowed to solidify for 30-40 minutes at 37° C. and 1 ml EBM-2 medium (supplemented with 2% FBS and […] streptomycin/penicillin solution) was added to each culture. The aortic rings were kept in a humidified CO2 incubator at 37° C. and fresh medium was replaced three times a week starting from day 3. Once an established microvessel network was developed (day 7-9), test compounds diluted in EBM-2 medium (1 ml) were added to each well and incubated at 37° C. for 24 h. The cultures were monitored for microvessel breakdown over time and images were taken 1 h, 4 h and 24 h after treatment using an Olympus CKX41 inverted microscope. Images were captured with an E-330 SLR camera system and processed using Cell̂ A software. Each compound concentration was tested in duplicate. Results were presented as images showing the microvessel breakdown at each time point.

Assay [2] relates to rat aortic ring cultures. The experiment in a line: Aortic ring assay (anti-angiogenic effect). In kind it is cell-based.

T1 sequence (P02550 whole entry): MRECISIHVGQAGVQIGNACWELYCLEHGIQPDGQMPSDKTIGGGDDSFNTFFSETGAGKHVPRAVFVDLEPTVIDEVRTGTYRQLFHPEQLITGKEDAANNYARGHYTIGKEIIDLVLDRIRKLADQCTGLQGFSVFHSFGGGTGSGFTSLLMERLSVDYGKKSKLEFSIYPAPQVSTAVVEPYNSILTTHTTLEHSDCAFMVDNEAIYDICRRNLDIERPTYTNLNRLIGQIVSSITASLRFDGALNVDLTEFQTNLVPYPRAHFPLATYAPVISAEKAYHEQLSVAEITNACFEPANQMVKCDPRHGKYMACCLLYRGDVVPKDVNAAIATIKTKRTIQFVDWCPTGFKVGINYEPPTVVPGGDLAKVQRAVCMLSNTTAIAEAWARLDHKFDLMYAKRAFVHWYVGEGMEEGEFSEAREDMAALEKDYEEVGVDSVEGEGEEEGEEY
T1 sequence (P02554 whole entry): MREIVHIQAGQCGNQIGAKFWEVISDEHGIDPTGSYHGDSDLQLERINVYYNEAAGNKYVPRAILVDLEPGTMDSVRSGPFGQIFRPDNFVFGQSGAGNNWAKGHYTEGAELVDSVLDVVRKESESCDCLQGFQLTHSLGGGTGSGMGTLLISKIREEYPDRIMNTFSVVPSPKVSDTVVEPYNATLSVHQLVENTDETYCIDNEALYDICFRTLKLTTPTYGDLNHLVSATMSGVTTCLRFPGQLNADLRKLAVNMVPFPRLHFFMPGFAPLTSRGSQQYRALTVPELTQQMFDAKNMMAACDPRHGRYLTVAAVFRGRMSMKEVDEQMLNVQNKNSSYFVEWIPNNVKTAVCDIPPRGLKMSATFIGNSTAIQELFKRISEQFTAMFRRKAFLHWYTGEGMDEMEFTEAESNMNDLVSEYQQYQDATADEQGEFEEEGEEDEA
Protocol for tubulin: The buffer was prepared with deionised water and the pH of the solution was adjusted to 6.6 by the drop-wise addition of 10M aq. NaOH. The buffer was stored at 4° C. prior to use.
Equipment: A Fluostar Optima 96 well plate reader equipped with a thermostat capability.
The tubulin assembly was followed by observing an increase in optical density of a tubulin solution at 350 nm at 37° C. Typically 1 ml of tubulin solution was diluted with EB (5 ml) and GTP solution (25 μl, 5 μl per ml of EB added) to the mixture. The mixture was vortexed for ten seconds in order to ensure the homogeneity of the mixture. 100 μl of the resultant solution was pipetted into a well in the 96 well plate. The increase in optical density of the tubulin solution was measured over a time course of ten minutes at 350 nm and 37° C. […] Accordingly, adjustments were made to the quantity of buffer added in order to obtain a protein concentration within the desired range. […] Tubulin solution (1000 was subsequently pipetted into each of the same three wells. The plate was immediately incubated at 37° C. and was subjected to orbital shaking for five seconds. The UV absorption was measured at 350 nm over a time course of ten minutes. The maximum slope of the resulting curve was measured. The slope of the blank represents the maximum rate of tubulin polymerisation.

Regarding `COc1ccc(C2=CC(=O)CCc3cc(OC)c(OC)c(OC)c32)cc1O` [Compound 12, 9-(3-hydroxy-4-methoxyphenyl)-1,2,3-trimethoxy-6,7-dihydro-5H-benzo[a]cyclohepten-7-one], on tubulin, the “tubulin binding activity (in words)” value was “inactive”.

Consider `COc1ccc(C2=C/C(=N/OCC(=O)NO)CCc3c2cc(OC)c(OC)c3OC)cc1N` [Compound 30, 2-[9-(3-Amino-4-methoxy-phenyl)-2,3,4-trimethoxy-5,6-dihydro-benzocyclohepten-7-ylideneaminooxy]-N-hydroxy-acetamide], for which the “anti-vascular effect on established microvessel network” value in the assay with rat aortic ring cultures [1] (4 h of treatment) is “satisfactory activity”; in the assay with rat aortic ring cultures [1] (24 h incubation), “clear microvessel disruption”. Besides, the “anti-angiogenic effect (microvessel area)” value with rat aortic ring cultures [2] (0.1 μM) is on record as “negligible reduction”. For the same molecule, the “anti-angiogenic effect (microvessel density)” value in the assay with rat aortic ring cultures [2] (1 μM) was “significantly (p<0.01) lower microvessel density”.
